According to patent publication US8637463B2, “Peptide inhibiting angiotensin converting enzyme” (Meiji Dairies Corporation, priority 2003, dated 2014):
Where a SMILES comes first, the peptide text is derived from it. Where no end group is shown, it is not given here.

target: ACE (Homo sapiens, UniProt P12821); assay: not given; details: known ACE-inhibiting peptides from casein and corn protein α-zein; cited from earlier work
Sequence (P12821 30-1306, species assumed): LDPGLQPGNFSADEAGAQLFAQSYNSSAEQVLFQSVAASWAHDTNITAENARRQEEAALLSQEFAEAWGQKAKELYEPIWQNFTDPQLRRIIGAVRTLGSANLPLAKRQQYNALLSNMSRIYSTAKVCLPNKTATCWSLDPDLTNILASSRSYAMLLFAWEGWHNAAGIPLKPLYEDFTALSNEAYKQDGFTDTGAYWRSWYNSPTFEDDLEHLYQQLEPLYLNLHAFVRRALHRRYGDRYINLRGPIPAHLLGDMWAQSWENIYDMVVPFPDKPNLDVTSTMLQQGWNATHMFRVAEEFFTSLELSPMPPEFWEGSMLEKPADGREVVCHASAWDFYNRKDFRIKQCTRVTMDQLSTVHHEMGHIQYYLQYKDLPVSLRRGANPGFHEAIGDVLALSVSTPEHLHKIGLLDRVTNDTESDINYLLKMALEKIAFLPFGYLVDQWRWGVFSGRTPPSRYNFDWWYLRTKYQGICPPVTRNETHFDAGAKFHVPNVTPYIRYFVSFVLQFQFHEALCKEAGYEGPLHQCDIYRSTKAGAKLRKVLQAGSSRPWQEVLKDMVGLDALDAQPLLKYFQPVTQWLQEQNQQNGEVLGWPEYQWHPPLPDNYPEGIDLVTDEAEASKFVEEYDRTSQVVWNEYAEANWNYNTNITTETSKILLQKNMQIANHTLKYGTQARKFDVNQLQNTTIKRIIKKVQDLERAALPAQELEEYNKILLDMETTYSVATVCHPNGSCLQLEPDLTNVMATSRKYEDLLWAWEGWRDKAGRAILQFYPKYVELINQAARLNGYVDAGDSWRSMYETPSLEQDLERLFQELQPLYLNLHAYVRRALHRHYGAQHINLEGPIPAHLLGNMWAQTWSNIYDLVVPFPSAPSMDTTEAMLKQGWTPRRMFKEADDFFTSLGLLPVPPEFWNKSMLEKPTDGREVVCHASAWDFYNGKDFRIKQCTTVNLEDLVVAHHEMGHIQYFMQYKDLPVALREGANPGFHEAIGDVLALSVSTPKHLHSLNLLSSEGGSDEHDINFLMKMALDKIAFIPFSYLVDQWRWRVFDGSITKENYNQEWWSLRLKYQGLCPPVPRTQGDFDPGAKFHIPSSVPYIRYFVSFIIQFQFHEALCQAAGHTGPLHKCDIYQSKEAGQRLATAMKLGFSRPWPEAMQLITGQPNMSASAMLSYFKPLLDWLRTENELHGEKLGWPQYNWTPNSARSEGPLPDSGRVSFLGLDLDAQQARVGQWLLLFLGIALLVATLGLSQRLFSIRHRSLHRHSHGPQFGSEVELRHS

| Compound | IC50 |
| --- | --- |
| Val-Ala-Pro [VAP, casein-derived peptide] | 2 µM |
| Ile-Pro-Pro [IPP, casein-derived peptide] | 5 µM |
| Leu-Gln-Pro [LQP, corn protein α-zein-derived peptide] | 2 µM |
| Val-Pro-Pro [VPP] | 9 µM |

target: Angiotensin Converting Enzyme (Homo sapiens, UniProt P12821); assay: ACE inhibitory activity with Hippuryl-His-Leu substrate, absorbance at 228 nm; type: biochemical; details: peptides having Met-Ala-Pro as a partial structure, same method as Example 2; Table 2
Procedure: Each of the peptides of SEQ ID NOs:1 to 7 was synthesized using an automatic peptide synthesizer. It was confirmed by reverse phase HPLC that the purity of each of the thus obtained peptides is 95%. Each of these synthetic peptides was dissolved in 0.1 M borate buffer (pH 8.3). Subsequently, 0.1 ml of an enzyme solution (Angiotensin Converting Enzyme: 2 units/ml) and 0.04 ml of each of the sample solutions were mixed therewith, followed by heating to 37° C. A 0.1 ml portion of a substrate solution (Hippuryl-His-Leu; N-Benzoyl-Gly-His-Leu) was added thereto, followed by thorough stirring. After allowing the mixture to react at 37° C. for 60 minutes, the reaction was stopped by adding 0.13 ml of 1 N hydrochloric acid. Then, 0.85 ml of ethyl acetate was added thereto, followed by shaking for 1 minute, and then the mixture was centrifuged at 3,000 rpm for 10 minutes. A 0.7 ml portion of the supernatant was recovered, and the solvent was removed using a centrifugal evaporator (about 30 minutes). The residual matters were dissolved by adding 0.5 ml of distilled water, and the absorbance at a wavelength of 228 nm was measured.
The activity of inhibiting ACE (%) was calculated by the following mathematical expression 1. Activity of inhibiting ACE(%)={(A−B)−(C−D)}/(A−B)×100 Mathematical expression 1
In this connection, A in the expression is absorbance of the control when the enzyme is used, B is the absorbance of the control when the enzyme is not used, C is absorbance of the sample when the enzyme is used, and D is absorbance of the sample when the enzyme is not used. In addition, 0.1 M borate buffer was used in the control instead of the sample solution.
Based on the thus obtained ACE inhibitory activities, IC50 of each peptide was calculated.
ACE inhibitory activities (%) of the 4 peptides, Leu-Met-Ala-Pro (SEQ ID NO:4), Arg-Met-Ala-Pro (SEQ ID NO:5), Met-Ala-Pro-Pro (SEQ ID NO:6) and Arg-Met-Ala-Pro-Pro (SEQ ID NO:7), which have Met-Ala-Pro as a partial structure, were obtained by the same method of Example 2, and their IC50's were calculated.

Chain of Angiotensin Converting Enzyme (P12821 30-1306, species assumed): as above

| Compound | IC50 |
| --- | --- |
| RMAPP [Arg-Met-Ala-Pro-Pro] | 255 µM |
| CSCC[C@H](NC(=O)[C@@H](N)CCCNC(=N)N)C(=O)N[C@@H](C)C(=O)N1CCC[C@H]1C(=O)O [Arg-Met-Ala-Pro] (H-RMAP-OH; N-terminus and C-terminus assumed) | 24 µM |

Next, values leading:

| IC50 | Compound |
| --- | --- |
| 28.3 µM | CSCC[C@H](N)C(=O)N[C@@H](C)C(=O)N1CCC[C@H]1C(=O)N1CCC[C@H]1C(=O)O [Met-Ala-Pro-Pro] (H-MAPP-OH; N-terminus and C-terminus assumed) |
| 27.9 µM | CSCC[C@H](NC(=O)[C@@H](N)CC(C)C)C(=O)N[C@@H](C)C(=O)N1CCC[C@H]1C(=O)O [Leu-Met-Ala-Pro] (H-LMAP-OH; N-terminus and C-terminus assumed) |

same assay, conditions: synthetic peptide, 0.1 M borate buffer pH 8.3, 37° C., 60 minutes; Table 1

| Compound | IC50 |
| --- | --- |
| CC[C@H](C)[C@H](N)C(=O)N[C@@H](Cc1c[nH]cn1)C(=O)N[C@@H](C)C(=O)O [Ile-His-Ala] (H-Ile-His-Ala-OH; N-terminus and C-terminus assumed) | 394 µM |
| CC[C@H](C)[C@H](N)C(=O)N[C@@H](CCC(N)=O)C(=O)N[C@@H](C)C(=O)O [Ile-Gln-Ala] (H-Ile-Gln-Ala-OH; N-terminus and C-terminus assumed) | 64.1 µM |
